# Test system: MDA-MB-435 human breast cancer cells
# Assay: DNA microarray gene expression after α-TEA treatment
# Format: cell-based
# Design: scale not given here
# Conditions: MDA-MB-435, 40 μM, 12 h
# Experimental: In order to identify genes that are involved in α-TEA induced apoptosis in cancer cells the gene expression levels in MDA-MB-435 human breast cancer cells were analyzed after treatment with α-TEA. The MDA-MB-435 cell line is an estrogen-receptor negative/estrogen-nonresponsive epithelial cell line isolated from the pleural effusions of a human with breast cancer (Price et al., 1990). DNA microarray data obtained from treatment of MDA-MB-435 cells with 40 μM α-TEA for 12 h identified approximately 400 genes that gave consistent responses to α-TEA treatment. Genes that passed a minimum quality control threshold were analyzed using online software (The Database for Annotation, Visualization and Integrated Discovery (DAVID)).
# MDA-MB-435 cells were cultured in MEM with Earle's balanced salts (Life Technologies, Inc., Grand Island, N.Y.) supplemented with 5% FBS (Hyclone Laboratories, Logan, Utah) plus 2 mM glutamine, 100 μg/ml streptomycin, 100 IU/ml penicillin, 1×(v/v) nonessential amino acids, 2×(v/v) MEM vitamins, and 1 mM sodium pyruvate (Sigma).
# Messenger RNA was isolated from the treated MDA-MB-435 cells (3×150 mm dishes) using the FastTrack 2.0 kit (Invitrogen) according to the manufacturer's instructions. First, 15 ml of lysis buffer was added into the cell pellets and mixed thoroughly. The cell lysates were incubated in 45° C. for 45 min with intermittent inversion. Then, 950 μl of 5 M NaCl stock solution was added and mixed thoroughly. Any remaining DNA was sheared by passing the lysates 3 times through a sterile plastic syringe fitted with a 21 gauge needle. Next, the calculated amount of oligo-dT cellulose was added to each sample and allowed to swell for 2 minutes. The tube was rocked gently in a horizontal position for 60-90 minutes at room temperature. The oligo-dT slurry was centrifuged at 4000 rpm for 5 minutes at room temperature, the supernatant was carefully removed from the resin bed. The oligo-dT cellulose was then resuspended in 20 ml of Binding Buffer by vortexing and centrifuged at 4000 rpm for 5 minutes at room temperature, the binding buffer was removed from the resin bed; this step was repeated with 10 ml of binding buffer. The oligo-dT cellulose was washed three times in 10 ml of Low Salt Wash Buffer and centrifuged. The resulting oligo-dT cellulose was resuspended in 800 μl of Low Salt Wash Buffer using a 1 ml pipette tip with a cut-end and quickly transferred to a spin column seated in a microcentrifuge tube. The column was centrifuged at 1000 rcf (about 3000 rpm on a typical microcentrifuge) for 10 seconds at room temperature and the flow-through liquid was discarded. The transfer and centrifugation steps were repeated until all of the oligo-dT cellulose was in the spin column. Then, the spin column containing the oligo-dT cellulose was placed into a clean microcentrifuge tube. The oligo-dT cellulose was resuspended in 200 μl of preheated Elution Buffer (65° C.) using a 200 μl cut-end pipette tip to gently swirl the cellulose, without puncturing the underlying spin column membrane. The column was allowed to stand for 2 minutes at room temperature and then centrifuged at 1000 rcf for 30 seconds at room temperature. This step was repeated with 200 μl of heated Elution Buffer. Then, 40 μl of 3 M sodium acetate and 1 ml of 95% ethanol were added into the combined 400 μl eluent which contained the mRNA and mixed thoroughly. The mRNA mixture was stored at −80° C. overnight. Thenext day, the mixture was thawed and centrifuged at 14,000 rpm in a microcentrifuge for 15 minutes at 4° C., the ethanol was then carefully removed from the mRNA pellet. The mRNA was washed with 70% ethanol once more and resuspended in 20 μl of Elution Buffer (heated as before). […]
smiles,measurement,setting,value
Cc1c(C)c2c(c(C)c1OCC(=O)O)CC[C@@](C)(CCC[C@H](C)CCC[C@H](C)CCCC(C)C)O2 [α-TEA],Average level,"Clone IMAGE: 5311129, mRNA, AI362218",−0.8568
same,Average level,"EST, AI201652",−0.7242
same,Average level,"Homo sapiens transcribed sequence with strong similarity to protein pdb: 1BGM, AA779865",−0.735
same,Average level,"Homo sapiens transcribed sequences, R55747",−0.756
same,Average level,"MRNA full length insert cDNA clone EUROIMAGE 200999, N54993",−0.698
same,Average level,"Transcribed sequences, H99855",−0.8377
same,Average level,"gene AGPAT3, R61733",−0.743
same,Average level,"gene AGTRAP, AA152101",−0.574
same,Average level,"gene AKR1C2, AI924357",−0.865
same,Average level,"gene AMD1, R82299",−0.758
same,Average level,"gene ATOX1, AA418755",−0.898
same,Average level,"gene ATP5G1, AA046701",−0.6558
same,Average level,"gene BAT3, AA598629",−0.5502
same,Average level,"gene BST2, AA485371",−0.5935
same,Average level,"gene C7orf38, AA452899",−0.6558
same,Average level,"gene C9orf58, H48148",−0.5662
same,Average level,"gene C13orf8, AA463267",−0.6892
same,Average level,"gene C14orf24, AA035549",−0.6602
same,Average level,"gene C16orf34, AA045658",−0.7252
same,Average level,"gene CDCA2, AI248208",−0.719
same,Average level,"gene CHD9, R81880",−0.6642
same,Average level,"gene CLCN3, H69811",−0.6208
same,Average level,"gene COX7B, AA629999",−0.8798
same,Average level,"gene CRABP1, AA421218",−0.7923
same,Average level,"gene CRTAP, AA490280",−0.7943
same,Average level,"gene CTNNB1, AW058504",−0.59
same,Average level,"gene CUGBP2, AA047257",−0.8218
same,Average level,"gene CXXC5, R63735",−0.8002
same,Average level,"gene D4ST1, AA922082",−0.6567
same,Average level,"gene DAG1, AA496691",−0.8377
same,Average level,"gene DCT, N27147",−0.8518
same,Average level,"gene DEPDC6, AA621364",−0.93
same,Average level,"gene DHCR24, AA482324",−0.8912
same,Average level,"gene DPY19L2, AA134696",−0.7558
same,Average level,"gene EPHB2, W72792",−0.6663
same,Average level,"gene ERBB3, AA664212",−0.864
same,Average level,"gene ETFB, AI364521",−0.6326
same,Average level,"gene FAM83D, R96941",−0.5566
same,Average level,"gene FBXL13, AA676859",−0.8802
same,Average level,"gene FLJ12973, AI220472",−0.7147
same,Average level,"gene FLJ21901, AI392678",−0.8782
same,Average level,"gene FZD4, AA677200",−0.765
same,Average level,"gene GFER, AA465021",−0.5873
same,Average level,"gene GGH, AA455800",−0.8048
same,Average level,"gene GNG2, N26108",−0.9006
same,Average level,"gene HBS1L, AI003293",−0.6832
same,Average level,"gene HNRPM, AA504272",−0.6512
same,Average level,"gene HSBP1, AA481263",−0.735
same,Average level,"gene IFT122, R97234",−0.585
same,Average level,"gene ITGB8, AI246160",−0.7288
same,Average level,"gene KIAA0664, AI363909",−0.8538
same,Average level,"gene LGALS13, AA706870",−0.8452
same,Average level,"gene LOC151162, H79970",−0.6815
same,Average level,"gene LOC286334, AA425105",−0.8562
same,Average level,"gene LRRK2, AA283609",−0.8566
same,Average level,"gene LTBP3, R60197",−0.6094
same,Average level,"gene MAF1, AA598994",−0.8305
same,Average level,"gene MAN1A2, R22905",−0.8387
same,Average level,"gene MGA, AA011551",−0.74
same,Average level,"gene MGC4692, AA455039",−0.7943
same,Average level,"gene MLANA, N26562",−0.551
same,Average level,"gene MVK, R06716",−0.673
same,Average level,"gene MYEF2, H96671",−0.6864
same,Average level,"gene MYO5A, H20809",−0.6754
same,Average level,"gene NETO2, AA456821",−0.6854
same,Average level,"gene NOV, AW008840",−0.7034
same,Average level,"gene NQO1, AA455538",−0.8166
same,Average level,"gene NUPL1, AA158352",−0.8132
same,Average level,"gene NUPL2, R96358",−0.7312
same,Average level,"gene NUSAP1, AA620485",−0.617
same,Average level,"gene OVOS2, AA600184",−0.9275
same,Average level,"gene PCDHB16, AI218958",−0.7648
same,Average level,"gene PFKFB2, R16146",−0.6214
same,Average level,"gene PLEKHF2, AA886792",−0.8846
same,Average level,"gene SCD, R00707",−0.8732
same,Average level,"gene SFRS2, AA454585",−0.7076
same,Average level,"gene SGCD, AA479286",−0.8855
same,Average level,"gene SLC26A2, AA704222",−0.9114
same,Average level,"gene SLC44A1, R59173",−0.6684
same,Average level,"gene SLC44A1, T61913",−0.6626
same,Average level,"gene SNX12, AA629796",−0.611
same,Average level,"gene SOS1, H64324",−0.6138
same,Average level,"gene STARD7, R37351",−0.7862
same,Average level,"gene TBC1D1, R32437",−0.8948
same,Average level,"gene TBC1D16, AI431804",−0.9208
same,Average level,"gene TMPO, H21943",−0.7848
same,Average level,"gene TMPO, T63980",−0.7846
same,Average level,"gene TNFRSF21, AA490494",−0.8622
same,Average level,"gene TNS3, T74023",−0.8212
same,Average level,"gene TOP2A, AA504348",−0.7142
same,Average level,"gene TREX1, AA279658",−0.861
same,Average level,"gene TRIM2, AA464935",−0.922
same,Average level,"gene TSHZ1, AA426522",−0.865
same,Average level,"gene TWSG1, N91767",−0.6
same,Average level,"gene USP40, H29211",−0.8932
same,Average level,"gene VAV3, H10045",−0.9075
same,Average level,"gene VPRBP, AA644335",−0.702
same,Average level,"gene VPS13D, AI005042",−0.7177
same,Average level,"gene WASPIP, AA283699",−0.8604
same,Average level,"gene ZNF291, AA001504",−0.6362

# From patent US20100292316A1, “IMPROVED THERAPEUTIC METHODS AND COMPOSITIONS COMPRISING CHROMAN RING COMPOUNDS” (Research Development Foundation, priority 2007, published 2010)
